Experimental data: ChEMBL document CHEMBL1201862, “PubChem BioAssay data set” (2004)
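A five-concentration, 48-hour dose response in 96-well plates underlies each endpoint, interpolated linearly between surrounding concentrations. GI50: concentration for 50% inhibition of growth.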 The source made the active and inactive calls. No stated cut-off is given here; in the data, active = GI50 up to about 1.1 µM and inactive = higher.

What was measured:
Assay in all cases: DTP human tumour cell line panel, 48 h
PC-3 = system: PC-3
MDA-MB-231 = system: MDA-MB-231
CCRF-CEM = system: CCRF-CEM
HCT-15 = system: HCT-15
SNB-19 = system: SNB-19
SR = system: SR
UACC-62 = system: UACC-62
UO-31 = system: UO-31
SW-620 = system: SW-620
SN12C = system: SN12C
786-0 = system: 786-0
K562 = system: K562
HL-60 = system: HL-60
OVCAR-4 = system: OVCAR-4
A549 = system: A549
HOP-92 = system: HOP-92
HT-29 = system: HT-29
ACHN = system: ACHN
NCI-H226 = system: NCI-H226

SMILES	GI50 (PC-3)	GI50 (MDA-MB-231)	GI50 (CCRF-CEM)	GI50 (HCT-15)	GI50 (SNB-19)	GI50 (SR)	GI50 (UACC-62)	GI50 (UO-31)	GI50 (SW-620)	GI50 (SN12C)	GI50 (786-0)	GI50 (K562)	GI50 (HL-60)	GI50 (OVCAR-4)	GI50 (A549)	GI50 (HOP-92)	GI50 (HT-29)	GI50 (ACHN)	GI50 (NCI-H226)
OCc1cn(Cc2ccccc2)c2ccccc12	30.1 µM (inactive)	19.5 µM (inactive)	0.488 µM (active)	10.8 µM	> 64.6 µM (inactive)	12.4 µM (inactive)	0.646 µM (active)	> 87.7 µM (inactive)	1.36 µM (inactive)	26 µM (inactive)	10.7 µM (inactive)	4.48 µM (inactive)	5.9 µM (inactive)	0.0378 µM (active)	9.02 µM (inactive)	5.51 µM (inactive)	1.71 µM (inactive)	28.1 µM (inactive)	
O=C(O)C1CC(C2CCCCN2)CN2CCCCC12 (stereo unspecified)	> 100 µM (inactive)	> 100 µM (inactive)	> 100 µM (inactive)	> 100 µM	> 100 µM (inactive)	> 100 µM (inactive)	> 100 µM (inactive)	> 100 µM (inactive)	> 100 µM (inactive)	> 100 µM (inactive)	> 100 µM (inactive)	> 100 µM (inactive)		> 100 µM (inactive)	> 100 µM (inactive)	> 100 µM (inactive)	> 100 µM (inactive)	> 100 µM (inactive)	> 100 µM (inactive)
COC(=O)C1CCC(=O)N1CN(C(C)=O)c1ccccc1Cl (stereo unspecified)	> 100 µM (inactive)	> 100 µM (inactive)		> 100 µM	> 100 µM (inactive)	> 100 µM (inactive)	> 100 µM (inactive)	> 100 µM (inactive)	> 100 µM (inactive)	> 100 µM (inactive)	> 100 µM (inactive)	> 10 µM (inactive)		> 100 µM (inactive)	> 100 µM (inactive)	> 100 µM (inactive)	> 100 µM (inactive)	> 100 µM (inactive)	> 100 µM (inactive)
COc1ccc2oc(=N)c(C(=O)Nc3cccc4ccccc34)cc2c1	12.3 µM (inactive)	26 µM (inactive)	2.33 µM (inactive)	1.61 µM	13.5 µM (inactive)	0.29 µM (active)	2.47 µM (inactive)	13 µM (inactive)	7.57 µM (inactive)	37.8 µM (inactive)	11.8 µM (inactive)	0.526 µM (active)	23.7 µM (inactive)	15.5 µM (inactive)	25.1 µM (inactive)		15.1 µM (inactive)	25.5 µM (inactive)	25.5 µM (inactive)
[N-]=[N+]=Nc1c([N+](=O)[O-])c(=O)n(-c2ccccc2)c2ccccc12	16.6 µM (inactive)	17.8 µM (inactive)	29.4 µM (inactive)	21.9 µM	32.3 µM (inactive)	25.2 µM (inactive)	14.3 µM (inactive)	14.8 µM (inactive)	29.2 µM (inactive)	23.4 µM (inactive)	19.5 µM (inactive)	22.5 µM (inactive)		18.3 µM (inactive)	38.7 µM (inactive)	26.4 µM (inactive)	28.2 µM (inactive)	21.7 µM (inactive)	25.5 µM (inactive)
C=CCNC(=S)NC=C(C(N)=O)C(N)=O	> 100 µM (inactive)	> 100 µM (inactive)	> 100 µM (inactive)	> 100 µM	> 100 µM (inactive)	> 100 µM (inactive)	> 100 µM (inactive)	87.9 µM (inactive)	> 100 µM (inactive)	> 100 µM (inactive)	> 100 µM (inactive)	> 100 µM (inactive)	> 100 µM (inactive)	> 100 µM (inactive)	> 100 µM (inactive)		> 100 µM (inactive)	> 100 µM (inactive)	> 100 µM (inactive)
CCOCCOC(=O)C1CCC(=O)N1CN(C(C)=O)c1cc(OC)ccc1OC (stereo unspecified)	> 100 µM (inactive)	> 100 µM (inactive)		> 100 µM	> 100 µM (inactive)	1 µM (active)	> 100 µM (inactive)	> 100 µM (inactive)	> 100 µM (inactive)	> 100 µM (inactive)	> 100 µM (inactive)	> 100 µM (inactive)		> 100 µM (inactive)	> 100 µM (inactive)	> 100 µM (inactive)	> 100 µM (inactive)	> 100 µM (inactive)	> 100 µM (inactive)
CN1C(=O)c2ccccc2NC(=O)C12O[C@@H]2c1ccccc1 (stereo partly specified)	> 100 µM (inactive)	67.6 µM (inactive)	> 100 µM (inactive)	> 10 µM	> 10 µM (inactive)	> 100 µM (inactive)	> 100 µM (inactive)	> 100 µM (inactive)	> 100 µM (inactive)	> 100 µM (inactive)	> 100 µM (inactive)		> 100 µM (inactive)	> 100 µM (inactive)	> 100 µM (inactive)	> 100 µM (inactive)	> 100 µM (inactive)	> 100 µM (inactive)	
